Measurements: patent publication US6534525B1, “2-substituted piperidine analogs and their use as subtype-selective NMDA receptor antagonists” (Warner-Lambert & Company, priority 1995, dated 2003)
Counter-ions that a name gives are not always drawn. Like-named read-outs stand apart in the source and are kept apart here.

How the values were obtained:
[1] = biological target: NMDA receptor subunits 1A/2A (NR1A+NR2A) (Rattus norvegicus, UniProt P35439+Q00959); assay: Electrophysiological assay at cloned NMDA receptor subunits expressed in Xenopus oocytes, 1A/2A; assay type: cell-based
Sequence of NMDA receptor subunits 1A/2A (NR1A+NR2A) (Q00959 23-1464, other chains not shown): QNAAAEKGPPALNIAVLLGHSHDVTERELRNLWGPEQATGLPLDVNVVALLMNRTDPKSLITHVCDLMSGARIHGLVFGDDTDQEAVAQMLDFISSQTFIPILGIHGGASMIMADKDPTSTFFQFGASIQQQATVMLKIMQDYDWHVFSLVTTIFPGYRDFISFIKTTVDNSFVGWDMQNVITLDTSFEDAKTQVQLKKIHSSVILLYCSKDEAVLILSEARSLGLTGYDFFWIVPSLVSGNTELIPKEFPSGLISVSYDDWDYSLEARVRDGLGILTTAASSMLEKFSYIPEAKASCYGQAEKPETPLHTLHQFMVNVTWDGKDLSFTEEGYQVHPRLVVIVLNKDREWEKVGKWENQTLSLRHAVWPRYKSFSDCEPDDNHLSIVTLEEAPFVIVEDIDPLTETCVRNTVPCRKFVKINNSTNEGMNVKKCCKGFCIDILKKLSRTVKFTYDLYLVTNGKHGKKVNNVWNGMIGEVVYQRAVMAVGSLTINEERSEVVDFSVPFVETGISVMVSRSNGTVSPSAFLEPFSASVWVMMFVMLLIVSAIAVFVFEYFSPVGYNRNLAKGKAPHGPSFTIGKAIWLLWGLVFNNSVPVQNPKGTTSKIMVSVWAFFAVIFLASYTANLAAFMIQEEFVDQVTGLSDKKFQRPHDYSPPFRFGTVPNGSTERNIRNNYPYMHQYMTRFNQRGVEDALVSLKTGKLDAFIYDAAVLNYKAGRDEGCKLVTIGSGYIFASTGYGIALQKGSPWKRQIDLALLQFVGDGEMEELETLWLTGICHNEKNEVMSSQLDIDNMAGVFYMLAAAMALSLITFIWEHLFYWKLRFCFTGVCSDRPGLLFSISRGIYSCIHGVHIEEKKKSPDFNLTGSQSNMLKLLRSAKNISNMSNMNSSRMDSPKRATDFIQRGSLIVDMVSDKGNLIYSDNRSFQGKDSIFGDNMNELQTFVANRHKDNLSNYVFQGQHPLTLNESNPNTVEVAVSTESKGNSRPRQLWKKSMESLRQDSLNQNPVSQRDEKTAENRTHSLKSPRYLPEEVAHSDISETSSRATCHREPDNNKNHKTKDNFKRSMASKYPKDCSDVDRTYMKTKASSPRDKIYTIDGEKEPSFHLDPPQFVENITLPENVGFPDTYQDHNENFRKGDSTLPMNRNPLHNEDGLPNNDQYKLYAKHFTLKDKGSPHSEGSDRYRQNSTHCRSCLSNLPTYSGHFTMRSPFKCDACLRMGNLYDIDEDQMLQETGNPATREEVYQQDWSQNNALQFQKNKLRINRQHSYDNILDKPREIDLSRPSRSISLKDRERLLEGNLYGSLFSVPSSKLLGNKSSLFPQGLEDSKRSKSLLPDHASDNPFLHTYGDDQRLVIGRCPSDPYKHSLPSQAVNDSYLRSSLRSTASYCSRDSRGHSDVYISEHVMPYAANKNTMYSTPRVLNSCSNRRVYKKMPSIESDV
Procedure: (§1) Electrophysiological Assays at NMDA Receptor Subunits
(§2) The clones were transformed into appropriate host bacteria and plasmid preparations were made with conventional DNA purification techniques. A sample of each clone was linearized by restriction enzyme digestion and cRNA was synthesized with T3 RNA polymerase. The cRNA was diluted to 400 ng/μl and stored in 1 μl aliquots at −80° C. until injection.
(§3) The Xenopus oocyte Expression System
(§4) Follicle-enclosed oocytes were micro-injected with 1:1 mixtures of cRNA:NR1A+NR2A, 2B, 2C or 2D; injecting ˜2,5, or 20 ng of RNA encoding each receptor subunit. NR1A encoding cRNA was injected alone at ˜20 ng. Oocytes were stored in Barth's medium containing (in mM):NaCl, 88; KCl, 1; CaCl2, 0.41; Ca(NO3)2, 0.33; MgSO4, 0.82 NaHCO3, 2.4; HEPES 5, pH 7.4, with 0.1 mg/ml gentamicin sulphate. While oocytes were still surrounded by enveloping ovarian tissues the Barth's medium was supplemented with 0.1% bovine serum.
(§5) Electrical recordings were made using a conventional two-electrode voltage clamp (Dagan TEV-200) over periods ranging between 3-14 days following injection. […] Drugs were applied by bath perfusion. Using oocytes expressing different subunit combinations of NMDA receptor, NMDA currents were activated by co-application of glutamate and glycine. Inhibitory potency of the novel antagonists was assessed on responses elicited by fixed concentrations of glutamate and glycine, by measuring reductions in current induced by progressively increasing concentrations of antagonists.
(§6) Concentration-inhibition curves were fit with equation 1.
(§7) in which Icontrol is the current evoked by agonists alone, pIC50=−log IC50, IC50 is the concentration of antagonist that produces half maximal inhibition, and n is the slope factor. […] For incomplete curves analysis by fitting was unreliable and IC50 values were calculated by simple regression over linear portions of the curves (Origin: Microcal Software).

[2] = biological target: NMDA receptor subunits 1A/2B (NR1A+NR2B) (Rattus norvegicus, UniProt P35439+Q00960); assay: Electrophysiological assay at cloned NMDA receptor subunits expressed in Xenopus oocytes, 1A/2B; assay type: cell-based
Sequence of NMDA receptor subunits 1A/2B (NR1A+NR2B) (Q00960 27-1482, other chains not shown): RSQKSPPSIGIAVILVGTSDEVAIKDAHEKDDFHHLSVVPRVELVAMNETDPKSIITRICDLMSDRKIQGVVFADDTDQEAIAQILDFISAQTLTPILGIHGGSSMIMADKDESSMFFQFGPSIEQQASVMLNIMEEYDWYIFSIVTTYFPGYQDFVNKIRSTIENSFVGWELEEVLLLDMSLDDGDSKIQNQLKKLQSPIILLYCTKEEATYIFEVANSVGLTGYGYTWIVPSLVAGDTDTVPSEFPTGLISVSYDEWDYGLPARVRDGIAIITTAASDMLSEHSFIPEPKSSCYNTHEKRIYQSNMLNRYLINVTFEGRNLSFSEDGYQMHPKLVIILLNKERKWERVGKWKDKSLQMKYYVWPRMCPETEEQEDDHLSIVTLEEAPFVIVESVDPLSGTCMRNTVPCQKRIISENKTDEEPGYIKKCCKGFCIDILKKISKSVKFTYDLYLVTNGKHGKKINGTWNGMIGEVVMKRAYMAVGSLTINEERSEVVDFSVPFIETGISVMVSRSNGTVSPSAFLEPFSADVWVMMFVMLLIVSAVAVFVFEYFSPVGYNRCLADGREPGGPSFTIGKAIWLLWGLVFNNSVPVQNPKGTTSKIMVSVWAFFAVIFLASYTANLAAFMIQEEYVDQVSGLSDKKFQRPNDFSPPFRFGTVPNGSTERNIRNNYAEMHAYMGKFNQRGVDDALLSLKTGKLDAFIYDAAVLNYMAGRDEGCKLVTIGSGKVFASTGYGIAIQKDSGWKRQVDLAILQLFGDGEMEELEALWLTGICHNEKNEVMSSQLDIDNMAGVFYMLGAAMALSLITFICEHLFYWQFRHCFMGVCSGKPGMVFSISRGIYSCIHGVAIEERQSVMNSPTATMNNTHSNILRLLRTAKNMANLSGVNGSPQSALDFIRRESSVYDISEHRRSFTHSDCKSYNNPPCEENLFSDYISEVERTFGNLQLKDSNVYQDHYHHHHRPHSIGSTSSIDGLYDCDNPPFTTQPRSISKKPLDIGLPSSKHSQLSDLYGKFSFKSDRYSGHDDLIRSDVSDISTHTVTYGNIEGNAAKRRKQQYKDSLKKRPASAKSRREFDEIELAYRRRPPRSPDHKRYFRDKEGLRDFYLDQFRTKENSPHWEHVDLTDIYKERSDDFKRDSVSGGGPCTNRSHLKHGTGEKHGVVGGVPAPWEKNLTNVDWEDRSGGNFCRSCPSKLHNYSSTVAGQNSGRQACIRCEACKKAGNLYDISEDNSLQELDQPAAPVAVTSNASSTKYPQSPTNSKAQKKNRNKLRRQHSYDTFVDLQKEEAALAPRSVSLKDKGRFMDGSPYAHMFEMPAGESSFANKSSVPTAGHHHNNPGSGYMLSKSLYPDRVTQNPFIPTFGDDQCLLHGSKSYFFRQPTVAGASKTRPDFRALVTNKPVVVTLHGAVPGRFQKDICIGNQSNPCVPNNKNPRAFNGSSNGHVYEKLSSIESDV
Procedure: as §1, §2, §3, §4, §5, §6, §7

[3] = biological target: NMDA receptor subunits 1A/2C (NR1A+NR2C) (Rattus norvegicus, UniProt P35439+Q00961); assay: Electrophysiological assay at cloned NMDA receptor subunits expressed in Xenopus oocytes, 1A/2C; assay type: cell-based
Sequence of NMDA receptor subunits 1A/2C (NR1A+NR2C) (Q00961 20-1237, other chains not shown): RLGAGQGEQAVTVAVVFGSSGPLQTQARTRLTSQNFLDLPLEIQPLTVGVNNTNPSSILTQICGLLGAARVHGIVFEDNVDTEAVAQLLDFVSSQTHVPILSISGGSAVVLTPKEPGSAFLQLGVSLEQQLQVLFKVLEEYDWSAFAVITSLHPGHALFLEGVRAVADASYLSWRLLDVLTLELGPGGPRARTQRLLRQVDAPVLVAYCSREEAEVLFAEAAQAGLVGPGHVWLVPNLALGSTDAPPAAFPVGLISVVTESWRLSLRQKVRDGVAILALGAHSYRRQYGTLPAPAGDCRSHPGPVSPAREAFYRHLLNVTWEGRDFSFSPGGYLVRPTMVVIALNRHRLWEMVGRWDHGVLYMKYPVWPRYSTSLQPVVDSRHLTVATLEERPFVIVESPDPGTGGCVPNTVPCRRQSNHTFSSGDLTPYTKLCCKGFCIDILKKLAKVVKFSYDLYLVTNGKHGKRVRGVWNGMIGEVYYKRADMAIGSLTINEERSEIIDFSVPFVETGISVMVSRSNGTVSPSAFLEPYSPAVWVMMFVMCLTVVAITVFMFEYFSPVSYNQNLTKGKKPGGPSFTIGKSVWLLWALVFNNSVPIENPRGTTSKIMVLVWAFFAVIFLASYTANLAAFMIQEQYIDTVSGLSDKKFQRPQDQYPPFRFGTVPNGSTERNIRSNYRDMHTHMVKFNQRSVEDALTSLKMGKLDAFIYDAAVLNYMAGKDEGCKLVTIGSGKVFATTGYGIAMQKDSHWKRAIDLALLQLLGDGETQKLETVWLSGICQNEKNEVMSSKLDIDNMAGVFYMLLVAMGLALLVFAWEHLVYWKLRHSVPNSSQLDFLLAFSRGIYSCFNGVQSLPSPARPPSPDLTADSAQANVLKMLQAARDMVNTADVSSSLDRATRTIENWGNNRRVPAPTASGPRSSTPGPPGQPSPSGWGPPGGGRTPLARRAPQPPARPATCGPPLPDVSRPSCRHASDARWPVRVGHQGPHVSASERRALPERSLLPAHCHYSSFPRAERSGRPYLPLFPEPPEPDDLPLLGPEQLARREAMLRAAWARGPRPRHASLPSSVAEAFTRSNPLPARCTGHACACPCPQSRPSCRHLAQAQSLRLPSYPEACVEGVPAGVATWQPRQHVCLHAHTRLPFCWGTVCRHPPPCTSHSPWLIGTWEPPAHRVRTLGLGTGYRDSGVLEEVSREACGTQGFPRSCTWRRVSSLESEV
Procedure: as §1, §2, §3, §4, §5, §6, §7

[4] = system: maximal electroshock-induced seizures; assay: Maximal electroshock-induced seizures (MES); assay type: in vivo, mice; conditions: Mus musculus, read-out: MES (ED50) (mg/kg)
Procedure: Maximal Electroshock-induced Seizures
Seizures were induced by application of current (50 mA, 60 pulses/sec, 0.8 sec pulse width, 1 sec duration, d.c.) through saline-coated corneal electrodes using a Ugo Basile ECT device (Model 7801). […] A tonic seizure was defined as a hindlimb extension in excess of 90 degrees from the plane of the body. Results were treated in a quantal manner.

[5] = biological target: NMDA receptor subunits 1A/2D (NR1A+NR2D) (Rattus norvegicus, UniProt P35439+Q62645); assay: Electrophysiological assay at cloned NMDA receptor subunits expressed in Xenopus oocytes, 1A/2D; assay type: cell-based; conditions: two-electrode voltage clamp, currents activated by glutamate and glycine
Text: Electrophysiological Assays at NMDA Receptor Subunits […]
cDNA clones encoding the NR1A, NR2A, NR2B, NR2C and NR2D rat NMDA receptor subtypes were provided by Dr. P. H. Seeburg (see, Morivoshi et al., Nature (Lond.) 354:31-37 (1991); Kutsuwada et al., Nature (Lond.) 358:36-41 (1992) Monyer et al., Science (Washington. D.C.) 256:1217-1221 (1992); Ikeda et al., FEBS Lett. 313:34-38 (1992); Ishii et al., J. Biol. Chem. 268:2836-2843 (1993) for details of these clones or their mouse homologs). The clones were transformed into appropriate host bacteria and plasmid preparations were made with conventional DNA purification techniques. A sample of each clone was linearized by restriction enzyme digestion and cRNA was synthesized with T3 RNA polymerase. The cRNA was diluted to 400 ng/μl and stored in 1 μl aliquots at −80° C. until injection.
The Xenopus oocyte Expression System […]
Electrical recordings were made using a conventional two-electrode voltage clamp (Dagan TEV-200) over periods ranging between 3-14 days following injection. […] Inhibitory potency of the novel antagonists was assessed on responses elicited by fixed concentrations of glutamate and glycine, by measuring reductions in current induced by progressively increasing concentrations of antagonists. […]

[6] = cloned rat NMDA receptor in Xenopus oocytes, two-electrode voltage clamp, currents activated by glutamate and glycine, read-out: Subunits (IC50(μM)) 1A/2A
[7] = cloned rat NMDA receptor in Xenopus oocytes, two-electrode voltage clamp, currents activated by glutamate and glycine, read-out: Subunits (IC50(μM)) 1A/2B
[8] = cloned rat NMDA receptor in Xenopus oocytes, two-electrode voltage clamp, currents activated by glutamate and glycine, read-out: Subunits (IC50(μM)) 1A/2C

Row | SMILES | melting point [°C] | IC50 [1, 6] [µM] | IC50 [2, 7] [µM] | IC50 [3, 8] [µM] | also measured
1 | Fc1ccc(OCC[n+]2ccccc2Cc2ccc(Cl)cc2)cc1.[Br-] | 179 to 180 | – | – | – | –
2 | Br.c1ccc(CCCCN2CCCCC2Cc2ccccc2)cc1 (stereo not drawn) | 133 to 135 | – | – | – | –
3 | Br.c1ccc(CC2CCCCN2CCCCOc2ccccc2)cc1 (stereo not drawn) | 100 to 103 | – | – | – | –
4 | c1ccc(CC2CCCCN2Cc2ccccc2)cc1 (stereo not drawn) [Example 2, 1,2-Dibenzylpiperidine, hydrobromide] | – | 15 | 19 | 33 | –
5 | Br.c1ccc(CCCN2CCCCC2Cc2ccccc2)cc1 (stereo not drawn) [Example 4, 2-Benzyl-1-(3-phenylpropyl)piperidine, hydrobromide] | 155 to 157 | 8 | 15 | 125 | –
6 | c1ccc(CCCCN2CCCCC2Cc2ccccc2)cc1 (stereo not drawn) [Example 5, 2-Benzyl-1-(4-phenylbutyl)piperidine] | – | 5 | 8 | 55 | ED50 [4]: 4 mg/kg
7 | c1ccc(CC2CCCCN2CCOc2ccccc2)cc1 (stereo not drawn) [Example 6, 2-Benzyl-1-(2-phenoxyethyl)piperidine] | – | 17 | 25 | 130 | –
8 | Br.c1ccc(CC2CCCCN2CCCOc2ccccc2)cc1 (stereo not drawn) [Example 7, 2-Benzyl-1-(3-phenoxypropyl)piperidine hydrobromide] | 119 to 121 | 4 | 12 | 45 | ED50 [4]: 2.5 mg/kg
9 | c1ccc(CC2CCCCN2CCCCOc2ccccc2)cc1 (stereo not drawn) [Example 8, 2-Benzyl-1-(4-phenoxybutyl)piperidine] | – | 3 | 8 | 45 | ED50 [4]: 4 mg/kg
10 | Cl.Fc1ccc(OCCN2CCCCC2Cc2ccc(Cl)cc2)cc1 (stereo not drawn) [Example 24, 2-(4-Chlorobenzyl)-1-(2-(4-fluorophenoxy)ethyl)piperidine hydrochloride] | 163 to 165 | 55 | 22 | 160 | –
11 | Cl.Oc1ccc(OCCN2CCCCC2Cc2ccc(Cl)cc2)cc1 (stereo not drawn) [Example 25, 2-(4-Chlorobenzyl)-1-(2-(4-hydroxyphenoxy)ethyl)piperidine hydrochloride] | 229 to 230 | – | – | – | IC50 [1]: 62 µM; IC50 [2]: 4.2 µM; IC50 [3]: 160 µM
12 | Cl.Oc1ccc(OCCN2CCCCC2Cc2ccccc2)cc1 (stereo not drawn) [Example 26, 2-Benzyl-1-(2-(4-hydroxyphenoxy)ethyl)piperidine hydrochloride] | 215 to 216 | – | – | – | IC50 [1]: 80 µM; IC50 [2]: 15 µM; IC50 [3]: 150 µM

Second part, led by results:

Row | melting point [°C] | IC50 [1, 6] [µM] | IC50 [2, 7] [µM] | IC50 [3, 8] [µM] | SMILES | also measured
13 | 136 to 140 | – | – | – | Br.FC(F)(F)c1ccccc1OCCCCN1CCCCC1Cc1ccccc1 (stereo not drawn) | –
14 | 143.5 to 144.5 | – | – | – | Br.FC(F)(F)c1cccc(OCCCCN2CCCCC2Cc2ccccc2)c1 (stereo not drawn) | –
15 | 130 to 134 | – | – | – | Br.FC(F)(F)c1ccc(OCCCCN2CCCCC2Cc2ccccc2)cc1 (stereo not drawn) | –
16 | 119 to 123 | – | – | – | Br.Fc1cccc(OCCCCN2CCCCC2Cc2ccccc2)c1 (stereo not drawn) | –
17 | 162.5 to 164.5 | – | – | – | Br.c1ccc(CCN2CCCCC2Cc2ccccc2)cc1 (stereo not drawn) | –
18 | 137.5 to 139.5 | – | – | – | c1ccc(CC2CCCCN2CCCCCOc2ccccc2)cc1 (stereo not drawn) (as salt: hydrobromid) [Example 20, 2-Benzyl-1-(5-phenoxypentyl)piperidine hydrobromide] | –
19 | 180 to 182 | – | – | – | O=[N+]([O-])c1ccc(OCCN2CCCCC2Cc2ccccc2)cc1 (stereo not drawn) (as salt: hydrobromid) [Example 21, 2-Benzyl-1-(2-(4-nitrophenoxy)ethyl)-piperidine hydrobromide] | –
20 | 130 | – | – | – | Nc1ccc(OCCN2CCCCC2Cc2ccccc2)cc1 (stereo not drawn) (as salt: hydrobromid) [Example 22, 1-(2-(4-Aminophenoxy)ethyl)-2-benzylpiperidine dihydrobromide] | –
21 | – | 23 | 50 | > 100 | Cc1ccccc1OCC(O)CN1CCCCC1Cc1ccccc1 (stereo not drawn) [Example 18, 2-Benzyl-1-[2-hydroxy-3-(2-methyl)phenoxy]propylpiperidine] | IC50 [5]: > 300 µM
22 | – | 14 | 22 | 70 | c1ccc(CC2CCCCN2CCCCCOc2ccccc2)cc1 (stereo not drawn) [Example 20, 2-Benzyl-1-(5-phenoxypentyl)piperidine hydrobromide] | –
23 | – | 60 | 35 | 240 | O=[N+]([O-])c1ccc(OCCN2CCCCC2Cc2ccccc2)cc1 (stereo not drawn) [Example 21, 2-Benzyl-1-(2-(4-nitrophenoxy)ethyl)-piperidine hydrobromide] | –
24 | – | 80 | 6 | 180 | Nc1ccc(OCCN2CCCCC2Cc2ccccc2)cc1 (stereo not drawn) [Example 22, 1-(2-(4-Aminophenoxy)ethyl)-2-benzylpiperidine dihydrobromide] | –
25 | 163 to 164 | 30 | 16 | 40 | Cl.Oc1ccc(OCCCN2CCCCC2Cc2ccccc2)cc1 (stereo not drawn) [Example 27, 2-Benzyl-1-(3-(4-hydroxyphenoxy)propyl)piperidine hydrochloride] | –
26 | – | 15 | 10 | 110 | Oc1ccc(OCCCCN2CCCCC2Cc2ccccc2)cc1 (stereo not drawn) [Example 28, 2-Benzyl-1-(4-(4-hydroxyphenoxy)butyl)piperidine hydrochloride] | –
27 | – | 7.5 | 5 | 33 | O=c1[nH]c2ccc(OCCN3CCCCC3Cc3ccccc3)cc2[nH]1 (stereo not drawn) [Example 30, 2-Benzyl-1-(4-(2-oxobenzimidazol-5-oxy)ethyl)piperidine] | –
